{"source": "patent US20100204152A1", "about": "“USE OF GLUTEN EXORPHIN C : AS A THERAPEUTIC AGENT” (priority 2007, published 2010)", "key": {"[1]": {"tested_on": "HCMV strain AD169", "test": "HCMV plaque formation assay in MRC-5 cells", "details": "for inhibition of HCMV plaque formation as compared to the virus control: 10 micrograms per ml, 7-10 days"}, "[2]": {"tested_on": "LPS-induced TNF-alpha production in human macrophages", "test": "TNF alpha production assay", "type": "cell-based", "details": "10 micrograms per ml; 30 min preincubation; lipopolysaccharide 200 ng/ml; overnight; ELISA", "excerpt": "Not stimulated macrophages served as negative background control."}, "[3]": {"tested_on": "RAW 264.7 cells", "test": "Phagocytosis assay", "type": "cell-based, mouse", "details": "10 micrograms per ml, Fluorescein-labeled Escherichia coli, flow cytometry"}, "[4]": {"tested_on": "hepatitis B virus (HBV) ayw strain in HepG2-2.2.15 cells", "test": "HBV experimental assay system (secreted HBV DNA, TaqMan PCR)", "type": "cell-based", "details": "10 micrograms per ml, six days, HBV DNA by TaqMan PCR", "excerpt": "HepG2-2.2.15 is a stable cell line containing the hepatitis B virus (HBV) ayw strain genome (ATCC Cat. No. CRL-11997). Antiviral compounds blocking any late step of viral replication such as transcription, translation, pregenome encapsidation, reverse transcription, particle assembly and release can be identified and characterized using this cell line. In this assay, an active compound will reduce the production of secreted HBV from cells, measured by utilizing real time quantitative PCR (TaqMan) assay to directly and accurately measure HBV DNA copies.\nHepG2-2.2.15 cells were plated in 96-well microtiter plates. After 16-24 hours the confluent monolayer of HepG2-2.2.15 cells was washed and the medium was replaced with complete medium containing test peptides—10 micrograms per ml—in duplicate. […] Six days following the initial administration of the peptides, the cell culture supernatants was collected, treated with pronase and DNAse and then used in a real-time quantitative TaqMan PCR assay. The PCR-amplified HBV DNA was detected in real-time by monitoring increases in fluorescence signals that result from the exonucleolytic degradation of a quenched fluorescence probe molecule that hybridizes to the amplified HBV DNA. […] Antiviral activity was calculated from the reduction in HBV DNA levels (% virus control). […]"}, "[5]": {"tested_on": "spleen cells", "test": "Th1/Th2 cytokine profiling assay", "type": "cell-based, Balb/c mice", "details": "10 micrograms per ml; Ovalbumin restimulation; 72 hours; supernatant", "quoted_text": "The Balb/c mice (originated in 1923, it is a popular strain and is used in many different research disciplines. Also classified as an inbred from the production of 20 or more successive brother-sister matings, the Balb/c mouse is albino and small in size) were immunized on Days 1, 15, and 29 with Ovalbumin (Ovalbumin is the main protein found in egg white, commonly used to stimulate an immunological reaction in test animals) in PBS (5 micrograms/injection). On day 50, spleens of the mice were harvested (3 weeks after last boost with Ovalbumin). Cells were cultured (2×10^5/well in triplicate) and incubated with culture medium or test peptides—10 micrograms per ml—for 30 min. Thereafter, additional Ovalbumin was added to the cells at 10 micrograms/ml for in vitro restimulation of the cells. 72 hours later, cell supernatants were harvested and assayed using the Becton Dickinson Mouse Th1/Th2 Cytokine CBA Kit. This kit can be used to measure Interleukin-2 (IL-2), Interleukin-4 (IL-4), Interleukin-5 (IL-5), Interferon-γ (IFN-γ), and Tumor Necrosis Factor-α (TNF-α) protein levels in a single sample. The kit performance has been optimized for analysis of physiologically relevant concentrations (pg/ml levels) of specific cytokine proteins in tissue culture supernatants and serum samples."}, "[6]": {"tested_on": "Primary Human endothelial cells (HUVEC)", "test": "Endothelial cell migration assay", "type": "cell-based", "details": "10 micrograms per ml, 22 hours", "experimental": "Thereafter, designated concentration of testing peptides—10 micrograms per ml—was added in duplicate wells."}, "[7]": {"tested_on": "HUVEC", "test": "Endothelial tube formation assay", "type": "cell-based, human", "details": "10 micrograms per ml, 20 hours, average tubule length", "excerpt": "Positive control was vehicle only."}}, "note": "Where no end group is shown, it is not given here."}
{"molecule": "Nc1nc(O)c2ncn(COC(CO)CO)c2n1", "note": "[Ganciclovir, reference compound]", "values": [{"measurement": "antiviral activity of positive control compound (HCMV)", "setting": "[1]; positive control", "value": "expected levels of antiviral activity"}]}
{"molecule": "AVPYPQR [peptide 1]", "values": [{"measurement": "inhibition of the LPS-induced TNF-alpha production in human macrophages", "setting": "[2]", "value": 22.4, "unit": "%"}, {"measurement": "inhibition of HCMV plaque formation as compared to the virus control", "setting": "[1]", "value": "did not inhibit"}, {"measurement": "effect on the phagocytic activity of murine macrophages (increase)", "setting": "[3]", "value": 22.9, "unit": "%"}, {"measurement": "inhibition of HBV replication as compared to the virus control infection", "setting": "[4]", "value": "no effect"}, {"measurement": "IFNγ spleen cells; TH1 response (% of control)", "setting": "[5]", "value": "52.4 % of control"}, {"measurement": "IL-2 spleen cells (% of control)", "setting": "[5]", "value": "55.7 % of control"}, {"measurement": "IL-4 spleen cells; TH2 response (% of control)", "setting": "[5]", "value": "0.0 % of control"}, {"measurement": "IL-5 spleen cells; TH2 response (% of control)", "setting": "[5]", "value": "53.0 % of control"}, {"measurement": "TNF-a spleen cells; TH1 response (% of control)", "setting": "[5]", "value": "86.6 % of control"}, {"measurement": "inhibition of the migration of human endothelial cells", "setting": "[6]", "value": 35, "unit": "%"}, {"measurement": "inhibition of the tube formation of endothelial cells", "setting": "[7]", "value": 18, "unit": "%"}]}
{"molecule": "Tyr-Pro-Ile-Ser-Leu-OH (YPISL-OH) [peptide 2]", "values": [{"measurement": "inhibition of the LPS-induced TNF-alpha production in human macrophages", "setting": "[2]", "value": "did not induced or inhibit"}, {"measurement": "inhibition of HCMV plaque formation as compared to the virus control", "setting": "[1]", "value": "did not inhibit"}, {"measurement": "effect on the phagocytic activity of murine macrophages (increase)", "setting": "[3]", "value": "no inhibitory or activating effect"}, {"measurement": "inhibition of HBV replication as compared to the virus control infection", "setting": "[4]", "value": 41.4, "unit": "%"}, {"measurement": "IFNγ spleen cells; TH1 response (% of control)", "setting": "[5]", "value": "53.9 % of control"}, {"measurement": "IL-2 spleen cells (% of control)", "setting": "[5]", "value": "124.0 % of control"}, {"measurement": "IL-4 spleen cells; TH2 response (% of control)", "setting": "[5]", "value": "94.1 % of control"}, {"measurement": "IL-5 spleen cells; TH2 response (% of control)", "setting": "[5]", "value": "86.6 % of control"}, {"measurement": "TNF-a spleen cells; TH1 response (% of control)", "setting": "[5]", "value": "126.2 % of control"}, {"measurement": "inhibition of the tube formation of endothelial cells", "setting": "[7]", "value": 100, "unit": "%"}]}
